In patent publication US7767659B2, “Synthesis of naturally occurring ecteinascidins and related compounds” (Pharma Mar, S.A., priority 2002, dated 2010):

Experiments:
[1] = test system: LoVo-Dox; test: Inhibition of cells growth by colorimetric assay (SRB); conditions: Homo sapiens, 48 h; for GI50: read-out: LOVO-DOX GI50; for CC50: read-out: LOVO-DOX LC50; for IC (TGI): read-out: LOVO-DOX TGI
Outline: (§1)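 Colorimetric SRB read (490 nm) on triplicate wells after 48 h at 37 °C, 5% CO2. Dose range 10 to 10^−8 μg/ml; 5×10^3 cells/well pre-attached 18 h.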

[2] = test system: IGROV-1; test: as above; conditions: Homo sapiens, IGROV-1, 48 h; for GI50: read-out: IGROV GI50; for CC50: read-out: IGROV LC50; for IC (TGI): read-out: IGROV TGI
Outline: as §1

[3] = test system: K-562; test: as above; conditions: Homo sapiens, K562, 48 h; for GI50: read-out: K562 GI50; for CC50: read-out: K562 LC50; for IC (TGI): read-out: K562 TGI
Outline: as §1

[4] = test system: PANC-1; test: as above; conditions: Homo sapiens, PANC-1, 48 h; for GI50: read-out: PANC-1 GI50; for CC50: read-out: PANC-1 LC50; for IC (TGI): read-out: PANC-1 TGI
Outline: as §1

[5] = test system: SK-MEL-28; test: as above; conditions: Homo sapiens, SK-MEL-28, 48 h; for GI50: read-out: MEL-28 GI50; for CC50: read-out: MEL-28 LC50; for IC (TGI): read-out: MEL-28 TGI
Outline: as §1

[6] = test system: DU-145; test: as above; conditions: Homo sapiens, DU-145, 48 h; for GI50: read-out: DU145 GI50; for CC50: read-out: DU145 LC50; for IC (TGI): read-out: DU145 TGI
Outline: as §1

[7] = test system: SK-BR-3; test: as above; conditions: Homo sapiens, SK-BR-3, 48 h; for GI50: read-out: SK-BR3 GI50; for CC50: read-out: SK-BR3 LC50; for IC (TGI): read-out: SK-BR3 TGI
Outline: as §1

[8] = test system: HeLa-APL; test: as above; conditions: Homo sapiens, 48 h; for GI50: read-out: HELA-APL GI50; for CC50: read-out: HELA-APL LC50; for IC (TGI): read-out: HELA-APL TGI
Outline: as §1

[9] = test system: IGROV-ET; test: as above; conditions: Homo sapiens, 48 h; for GI50: read-out: IGROV-ET GI50; for CC50: read-out: IGROV-ET LC50; for IC (TGI): read-out: IGROV-ET TGI
Outline: as §1

[10] = test system: LNCaP; test: as above; conditions: Homo sapiens, LNCaP, 48 h; for GI50: read-out: LNCAP GI50; for CC50: read-out: LNCAP LC50; for IC (TGI): read-out: LNCAP TGI
Outline: as §1

[11] = test system: HeLa; test: as above; conditions: Homo sapiens, HeLa, 48 h; for GI50: read-out: HELA GI50; for CC50: read-out: HELA LC50; for IC (TGI): read-out: HELA TGI
Outline: as §1

[12] = test system: A-549; test: cells; conditions: Homo sapiens, A549, 48 h; for GI50: read-out: A549 GI50; for CC50: read-out: A549 LC50; for IC (TGI): read-out: A549 TGI
Outline: as §1

[13] = test system: LoVo; test: cells; conditions: Homo sapiens, LoVo, 48 h; for GI50: read-out: LOVO GI50; for CC50: read-out: LOVO LC50; for IC (TGI): read-out: LOVO TGI
Outline: as §1

[14] = test system: HT-29; test: cells; conditions: Homo sapiens, HT-29, 48 h; for GI50: read-out: HT29 GI50; for CC50: read-out: HT29 LC50; for IC (TGI): read-out: HT29 TGI
Outline: as §1

`COc1c(C)cc2c(c1O)[C@H]1N[C@@H](C2)[C@H](C#N)N2C1[C@@H]1SC[C@]3(NCCc4c3[nH]c3ccc(O)cc43)C(=O)OC[C@H]2c2c3c(c(C)c(OC(C)=O)c21)OCO3` (stereo partly drawn) [compound 61] was tested, and the GI50 [1] was 495 nM, the CC50 [1] was 13100 nM and the IC (TGI) [1] was 1760 nM. It also gave a GI50 [2] of 4.82 nM, a CC50 [2] of 525 nM and an IC (TGI) [2] of 9.64 nM. The GI50 [3] was 2.56 nM, the CC50 [3] was 642 nM and the IC (TGI) [3] was 8.62 nM. It also gave a GI50 [4] of 4.69 nM, a CC50 [4] of 13100 nM and an IC (TGI) [4] of 15.4 nM. It also gave a GI50 [5] of 6.19 nM, a CC50 [5] of 60.7 nM and an IC (TGI) [5] of 18.8 nM. It also gave a GI50 [6] of 5.14 nM, a CC50 [6] of 7970 nM and an IC (TGI) [6] of 9.34 nM. The GI50 [7] was 4.28 nM, the CC50 [7] was 245 nM and the IC (TGI) [7] was 9 nM. The GI50 [8] was 2.98 nM, the CC50 [8] was 10.5 nM and the IC (TGI) [8] was 5.6 nM. For the same molecule, the GI50 [9] was 225 nM, the CC50 [9] was 4770 nM and the IC (TGI) [9] was 712 nM. For the same molecule, the GI50 [10] was 1.17 nM, the CC50 [10] was 6.92 nM and the IC (TGI) [10] was 2.94 nM. The GI50 [11] was 3.56 nM, the CC50 [11] was 11.8 nM and the IC (TGI) [11] was 6.49 nM. For the same molecule, the GI50 [12] was 24.3 nM, the CC50 [12] was 104 nM and the IC (TGI) [12] was 50.1 nM. For the same molecule, the GI50 [13] was 17.1 nM, the CC50 [13] was 8230 nM and the IC (TGI) [13] was 70.9 nM. The GI50 [14] was 6.58 nM, the CC50 [14] was 13100 nM and the IC (TGI) [14] was 1400 nM.

`C=CCN1[C@@H]2c3c(cc(C)c(OC)c3O)C[C@H]1[C@H](C#N)N1C2[C@@H]2SC[C@]3(NCCc4c3[nH]c3ccc(OC)cc43)C(=O)OC[C@H]1c1c3c(c(C)c(OC(C)=O)c12)OCO3` (stereo partly drawn) [compound 56] showed a GI50 [1] of 333 nM, a CC50 [1] of 12000 nM and an IC (TGI) [1] of 1330 nM. The GI50 [2] was 34.2 nM, the CC50 [2] was 1060 nM and the IC (TGI) [2] was 69.3 nM. For the same molecule, the GI50 [3] was 6.89 nM, the CC50 [3] was 12000 nM and the IC (TGI) [3] was 86.8 nM. The GI50 [4] was 90.2 nM, the CC50 [4] was 12000 nM and the IC (TGI) [4] was 953 nM. It also gave a GI50 [5] of 26.3 nM, a CC50 [5] of 91.4 nM and an IC (TGI) [5] of 49 nM. The GI50 [6] was 41 nM, the CC50 [6] was 12000 nM and the IC (TGI) [6] was 101 nM. It also gave a GI50 [7] of 5.71 nM, a CC50 [7] of 422 nM and an IC (TGI) [7] of 18.6 nM. It also gave a GI50 [8] of 25.9 nM, a CC50 [8] of 204 nM and an IC (TGI) [8] of 58.3 nM. For the same molecule, the GI50 [9] was 40.2 nM, the CC50 [9] was 12000 nM and the IC (TGI) [9] was 79.7 nM. For the same molecule, the GI50 [10] was 12.2 nM, the CC50 [10] was 67.7 nM and the IC (TGI) [10] was 28.8 nM. For the same molecule, the GI50 [11] was 27.1 nM, the CC50 [11] was 104 nM and the IC (TGI) [11] was 53.1 nM. For the same molecule, the GI50 [12] was 30.2 nM, the CC50 [12] was 705 nM and the IC (TGI) [12] was 68.7 nM. For the same molecule, the GI50 [13] was 23 nM, the CC50 [13] was 101 nM and the IC (TGI) [13] was 48.2 nM. For the same molecule, the GI50 [14] was 48.8 nM, the CC50 [14] was 12000 nM and the IC (TGI) [14] was 571 nM.

`COc1c(C)cc2c(c1OC(=O)/C=C/c1ccccc1)[C@H]1N[C@@H](C2)[C@H](O)N2C1[C@@H]1SCC(NC(=O)C(F)(F)F)C(=O)OC[C@H]2c2c3c(c(C)c(OC(C)=O)c21)OCO3` (stereo partly drawn) [compound 40] was tested, and the GI50 [1] was 354 nM, the CC50 [1] was 2790 nM and the IC (TGI) [1] was 810 nM. The GI50 [2] was 91.3 nM, the CC50 [2] was 1280 nM and the IC (TGI) [2] was 317 nM. The GI50 [3] was 41.4 nM, the CC50 [3] was 776 nM and the IC (TGI) [3] was 131 nM. The GI50 [4] was 321 nM, the CC50 [4] was 2570 nM and the IC (TGI) [4] was 747 nM. The GI50 [5] was 162 nM, the CC50 [5] was 688 nM and the IC (TGI) [5] was 334 nM. For the same molecule, the GI50 [6] was 5630 nM, the CC50 [6] was 1630 nM and the IC (TGI) [6] was 160 nM. For the same molecule, the GI50 [7] was 42.6 nM, the CC50 [7] was 524 nM and the IC (TGI) [7] was 97.6 nM. It also gave a GI50 [8] of 153 nM, a CC50 [8] of 775 nM and an IC (TGI) [8] of 344 nM. It also gave a GI50 [9] of 289 nM, a CC50 [9] of 980 nM and an IC (TGI) [9] of 533 nM. For the same molecule, the GI50 [10] was 48.1 nM, the CC50 [10] was 509 nM and the IC (TGI) [10] was 162 nM. The GI50 [11] was 111 nM, the CC50 [11] was 661 nM and the IC (TGI) [11] was 276 nM. For the same molecule, the GI50 [12] was 195 nM, the CC50 [12] was 1030 nM and the IC (TGI) [12] was 447 nM. For the same molecule, the GI50 [13] was 213 nM, the CC50 [13] was 1680 nM and the IC (TGI) [13] was 552 nM. The GI50 [14] was 337 nM, the CC50 [14] was 3840 nM and the IC (TGI) [14] was 1050 nM.
